The source of these data is ChEMBL document CHEMBL3507680, “University of Dundee, Gates Library screen for HepG2 cell viability”.

This data set in a line: Human HepG2 cell viability assay in 384 well format. It is filed as toxicity, cell-based. Conditions: HepG2 cells, read-out: Inhibition. More on the design: dose 125 nL, time 70.5 hour; concentration not given beside the values.

With `Cc1cnn(CCNCc2ccc(OCc3cccnc3)cc2)c1`, the cytotoxicity at 70.5 h was -4.14%.
With `Cc1cc(C(=O)NCc2ccc(N3CCCC(C(N)=O)C3)cc2)on1` (configuration not stated) the figure was -3.31%; with `Cc1nn(C)c(N(C)C)c1CNCc1ccccc1CO`, -0.166%; with `O=C(c1ccc2c(c1)OCO2)N1CCCC(n2ccnc2)C1` (configuration not stated), 10.2%.
`COc1cc(C(=O)N2CCCC(n3ccnc3)C2)cc2c1OCCO2` (configuration not stated): the cytotoxicity at 70.5 h is -7.87%.
For `CCc1ccsc1C(=O)N1CCN(CC(C)(C)O)CC1` the value was -5.61%; for `CN(C)CC1CN(Cc2coc(-c3ccccc3)n2)CCO1` (configuration not stated), -5.29%.
Regarding `CC(C)(O)CN1CCN(C(=O)c2sccc2C#N)CC1`, the cytotoxicity at 70.5 h is -3.64%.
Regarding `Cc1cnn(CC2CCCN2Cc2noc(C(C)C)n2)c1` (configuration not stated), the cytotoxicity at 70.5 h is -5.54%.
With `Cc1cc(C(=O)N2CCCC2c2c(C)nn(C)c2C)no1` (configuration not stated) the figure was -10.1%; with `Cc1cnn(CC2CCCN2Cc2noc(CC(C)C)n2)c1` (configuration not stated), -0.847%.
With `O=C(c1sccc1C1CC1)N1CCN(CC(F)(F)F)CC1` the figure was -1.63%.
For `Cc1cnn(CC(C)NCc2ccccc2OCc2cccnc2)c1` (configuration not stated) the value was -7.82%.
Consider `O=C(c1cc(Cl)c2c(c1)OCO2)N1CCCC(n2cncn2)C1` (configuration not stated), for which the cytotoxicity at 70.5 h was -4.61%.
Consider `Cc1cc(C)n(CC2CN(CC(=O)NCc3ccccn3)CCO2)n1` (configuration not stated), for which the cytotoxicity at 70.5 h is -2.74%.
`Cc1cnn(CC2CCCN2Cc2noc(C(C)(C)C)n2)c1` (configuration not stated): the cytotoxicity at 70.5 h was -2.54%.
With `CCn1cnnc1CNC(=O)N1CCCC1` the figure was 5.61%; with `Cc1nn(C)c(N(C)C)c1CNCc1cccc(Cn2cncn2)c1`, -3.12%.
With `Cc1cnn(CC(C)NCc2ccc(OCc3noc(C)n3)cc2)c1` (configuration not stated) the figure was -0.0911%; with `Cc1cnn(CC(C)NCc2ccncc2)c1` (configuration not stated), 0.737%; with `Cc1cnn(CC(C)NCc2ccc(OCc3nccn3C)cc2)c1` (configuration not stated), -5.96%.
As for `Cc1cnn(CC2CCCCN2C(=O)Cc2cn3ccsc3n2)c1` (configuration not stated), the cytotoxicity at 70.5 h was determined as 11.4%.
With `Cc1nc(C2CCCN(C(=O)c3cccc4c3OCCO4)C2)no1` (configuration not stated) the figure was -1.54%.
With `Cc1nnc2n1CCN(CCOc1cccc(C#N)c1)C2` the figure was -4.21%; with `CC(NCc1cc(F)ccc1F)c1ccc(OCC(=O)NC2CC2)cc1` (configuration not stated), -1.77%.
With `CC(Cc1ccc(Cl)cc1)NC(=O)Nc1cnn(CC(N)=O)c1` (configuration not stated) the figure was -8.4%; with `CC(NCc1cccc(Cl)c1)c1ccc(OCC(=O)NC2CC2)cc1` (configuration not stated), -4.37%.
On to `CCN(Cc1nc2c(cnn2C)c(=O)[nH]1)c1cccc(C)c1`, for which the cytotoxicity at 70.5 h was 4.24%.
For `CCN(Cc1nc2c(cnn2C)c(=O)[nH]1)c1ccc(F)cc1` the value was -3.68%; for `Cc1ccccc1CC(C)NC(=O)Nc1cnn(CC(N)=O)c1` (configuration not stated), -0.765%; for `COc1ccc(COCC(O)CNC(=O)Cc2ccc(C)cc2)cc1` (configuration not stated), -2.43%.
For `O=C(Cc1ccccc1F)N1CCN(Cc2noc(C3CC3)n2)CC1` the value was 10.8%.
For `COc1ccc(COCC(O)CNC(=O)c2ccc(C)c(F)c2)cc1` (configuration not stated) the value was -1.89%; for `COc1ccc(COCC(O)CNC(=O)c2ccc(C#N)cc2)cc1` (configuration not stated), -5.39%.
Take `c1cnn(CC2CN(c3ncnc4[nH]ccc34)CCO2)c1` (configuration not stated): the cytotoxicity at 70.5 h was -0.974%.
For `COc1ccc(COCC(O)CNC(=O)c2ccncc2)cc1` (configuration not stated) the value was -1.56%.
With `c1nc(N2CCOC(Cn3cncn3)C2)c2cc[nH]c2n1` (configuration not stated), the cytotoxicity at 70.5 h was -6.11%.
Turning to `CCN1CCC(NC(=O)CN2CCCC2Cn2cc(C)cn2)CC1` (configuration not stated), the cytotoxicity at 70.5 h came out at 0.649%.
With `CCc1ocnc1C(=O)N1CCOC(c2nc(C)n[nH]2)C1` (configuration not stated) the figure was -1.72%; with `Cn1ccnc1CN1CCCN(C(=O)COC2CCCCC2)CC1`, 22.3%; with `CC(C)n1ccnc1CN1CCCN(C(=O)CN(C)C2CC2)CC1`, -5.01%.
With `CCn1ccnc1CN1CCCN(C(=O)COC2CCCCC2)CC1` the figure was -3.09%; with `Cc1ccoc1C(=O)NC1CCN(Cc2cccc3ccccc23)CC1`, 1.33%; with `COc1ccccc1C(=O)N1CCC(Nc2ccc(C)nn2)CC1`, -8.98%.
With `CCc1noc(CN(Cc2cccs2)CC2CCCO2)n1` (configuration not stated) the figure was -1.65%; with `CC(=O)NCC1CCN(C(=O)NCCc2ccc(Cl)s2)CC1`, -6.89%; with `CC(=O)N1CCCN(C(=O)NCc2ccc(Cl)s2)CC1`, -3.07%.
In the case of `CC(C)c1ccc(S(=O)(=O)N2CSCC2C(=O)NCC(F)(F)F)cc1` (configuration not stated), the cytotoxicity at 70.5 h is -7.38%.
As to `Cc1cn2nc(N3CCN(Cc4cc(C)on4)CC3)sc2n1`, the cytotoxicity at 70.5 h is -2.77%.
With `CCn1ccnc1CN1CCOC(Cn2cccn2)C1` (configuration not stated) the figure was 22.6%.
For the molecule `COc1ccc(C(=O)N2CCC(Nc3cccnn3)CC2)c(F)c1`, the cytotoxicity at 70.5 h is -3.14%.
With `COc1ccc(C(=O)N2CCC(Nc3ccc(C)nn3)CC2)cc1` the figure was 0.696%.
With `c1cnnc(N2CCCC2CNc2cnc3ccccc3n2)c1` (configuration not stated) the figure was -2.61%.
For `Cc1ccc(NS(=O)(=O)c2cc3c(c(C(=O)O)c2)OCCO3)cc1C` the value was -5.96%; for `O=C(O)c1cc(S(=O)(=O)Nc2cc(Cl)ccc2F)cc2c1OCCO2`, 23%.
For the molecule `O=C(NCCc1ccc(I)s1)N1CCC1`, the cytotoxicity at 70.5 h was -2.1%.
As for `CCOC(=O)N1CCC(C(=O)c2cc(F)ccc2F)CC1`, the cytotoxicity at 70.5 h was -8.51%.
For `C=C(Cl)CN1CCC(C(=O)c2cc(F)ccc2F)CC1` the value was -10.5%; for `Cc1nc(C2CCCN2CC(=O)N2CCCc3ccccc32)no1` (configuration not stated), -6.37%; for `Cc1ccc(-c2nc(CNCCn3cccn3)cs2)o1`, -7.84%.
On to `CC(C(=O)NCCOc1ccc2c(c1)OCO2)n1cncn1` (configuration not stated), for which the cytotoxicity at 70.5 h is -13.4%.
With `COc1ccc2c(c1)CCCN2Cc1nc2c(cnn2C)c(=O)[nH]1`, the cytotoxicity at 70.5 h was -11.4%.
With `Cc1cc(C)cc(C2(C(=O)NC(C)Cn3ccnc3)CC2)c1` (configuration not stated) the figure was 9.35%; with `N#CC1(C(=O)N2CCN(Cc3cscn3)CC2)CCCC1`, 14.2%.
For `CCn1cnnc1C1CCN(C(=O)c2cnc(C3CC3)s2)CC1` the value was -10.2%; for `CCc1nnc2n1CCN(C(=O)Cc1csc(-c3ccco3)n1)C2`, -15.6%; for `CCc1nnc2n1CCN(C(=O)c1ccc(C(F)(F)F)nc1C)C2`, -15.4%.
As to `CCc1nc2n(n1)CC(NCC(=O)Nc1cc(C)on1)CC2` (configuration not stated), the cytotoxicity at 70.5 h came out at 12.5%.
Take `CCc1nc2n(n1)CC(NCC(=O)Nc1ccc(Cl)cn1)CC2` (configuration not stated): the cytotoxicity at 70.5 h was -18.9%.
For `O=C(NCc1ccccn1)N(Cc1ccc(F)cc1F)C1CC1` the value was -17.3%; for `O=C(Cn1cnnn1)N1CCCCC1Cn1cccn1` (configuration not stated), 17.9%; for `N#CC1(C(=O)N2CCN(Cc3ccon3)CC2)CCC1`, -20%.
For `CCCc1noc(CCC(=O)N2CCCC2c2noc(C3CC3)n2)n1` (configuration not stated) the value was -16.9%.
With `CCc1noc(CN2CCN(C(=O)N(C)C)CC2)n1` the figure was 20.5%; with `CC(C)c1noc(CCCC(=O)N2CCC(Cc3cccnc3)CC2)n1`, -20.7%; with `CCCc1noc(CCC(=O)N2CCCC2c2ccsc2)n1` (configuration not stated), -16.1%.
For `Cc1cc(CN(C)C(=O)NCc2cccc(N3CCCC3=O)c2)no1`, the cytotoxicity at 70.5 h was -25.6%.
With `CN(Cc1ccc(F)cc1)C(=O)CN1CCOC(Cn2cncn2)C1` (configuration not stated) the figure was 40.3%; with `Cc1ccc(CN(C)C(=O)CN2CCOC(Cn3cncn3)C2)o1` (configuration not stated), 9.12%.
For `CC(C)NC(=O)CS(=O)(=O)Cc1cc(Cl)c2c(c1)OCCO2` the value was -1.77%.
On to `CCn1cc(NC(=O)NCC(C)O)cn1` (configuration not stated), for which the cytotoxicity at 70.5 h was -1.8%.
For `CCc1nc(CN(CC(N)=O)C(C)C)cs1` the value was 18.1%; for `CCn1cc(NC(=O)NCC(O)c2ccccc2)cn1` (configuration not stated), 2.91%.
For `CCOc1ccnc(N2CCN(C(=O)c3cn[nH]c3CC)CC2)n1` the value was -3.19%; for `CCNc1cc2c(nn1)CCN(C(=O)CC1CCCCC1)C2`, -4.16%; for `CCCOc1ccc(CNC2CCCc3c2cnn3CC)cc1OC` (configuration not stated), 29.4%.
With `CS(=O)(=O)c1ccc(CNC(=O)N2CCC(c3ccccc3)CC2)cc1` the figure was -2.27%; with `O=C(c1ccc(O)cc1)N1CCN(C(=O)c2ccc3c(c2)COC3)CC1`, 2.44%.
For the molecule `CC(O)CN1CCN(C(=O)c2ccc3c(c2)COC3)CC1` (configuration not stated), the cytotoxicity at 70.5 h was found to be 22.6%.
For `COc1ccc(Cl)cc1C(=O)N1CCCC(n2nc(C)nc2C)C1` (configuration not stated) the value was 27.7%.
For `CC(C)c1n[nH]c(C2CN(Cc3nnc(C4CC4)o3)CCO2)n1` (configuration not stated) the value was 24.8%.
With `Cc1nn(C)c(C)c1C1CCCN1Cc1cccc(C(N)=O)c1` (configuration not stated) the figure was 4%.
Turning to `COc1cccc(CN2CCCC2c2c(C)nn(C)c2C)c1` (configuration not stated), the cytotoxicity at 70.5 h amounted to 3.04%.
For `c1ccc(-c2nc(CN3CCCC3Cn3cncn3)cs2)cc1` (configuration not stated) the value was 14.3%; for `CCS(=O)(=O)CCN1CCCC1c1noc(C2CC2)n1` (configuration not stated), 27%; for `CCc1nc(CN(C(C)=O)C2CCN(Cc3cnc(C)cn3)C2)no1` (configuration not stated), 23.6%.
With `COc1cccc(OCC(=O)NS(=O)(=O)c2ccc(C)s2)c1` the figure was 14%; with `CC(NC(=O)NCCCc1n[nH]c(N)c1C#N)c1cccs1` (configuration not stated), 44.5%.
For `CCOc1ncccc1NC(=O)NCC(O)c1ccccc1OC` (configuration not stated) the value was 11.2%.
Regarding `CC(NC(=O)NCCCc1n[nH]c(N)c1C#N)c1ccccc1` (configuration not stated), the cytotoxicity at 70.5 h was determined as 26.6%.
For `COc1cccc(-n2c(C)cc(C(=O)NS(C)(=O)=O)c2C)c1` the value was -1.93%.
With `COCCOc1ccc(NC(=O)C2CC(=O)N(C)C2)cn1` (configuration not stated) the figure was -4.68%.
